Reference: ChEMBL document CHEMBL1133317, “The solid phase synthesis of tetrahydroisoquinolines having cdc25B inhibitory activity” (Bioorg Med Chem Lett, 2000)

Each compound was assayed against T1, M-phase inducer phosphatase 2 (Homo sapiens) (UniProt P30305) (assay: Inhibitory activity against Cell division cycle 25B at 100 uM).
T1 sequence (whole entry): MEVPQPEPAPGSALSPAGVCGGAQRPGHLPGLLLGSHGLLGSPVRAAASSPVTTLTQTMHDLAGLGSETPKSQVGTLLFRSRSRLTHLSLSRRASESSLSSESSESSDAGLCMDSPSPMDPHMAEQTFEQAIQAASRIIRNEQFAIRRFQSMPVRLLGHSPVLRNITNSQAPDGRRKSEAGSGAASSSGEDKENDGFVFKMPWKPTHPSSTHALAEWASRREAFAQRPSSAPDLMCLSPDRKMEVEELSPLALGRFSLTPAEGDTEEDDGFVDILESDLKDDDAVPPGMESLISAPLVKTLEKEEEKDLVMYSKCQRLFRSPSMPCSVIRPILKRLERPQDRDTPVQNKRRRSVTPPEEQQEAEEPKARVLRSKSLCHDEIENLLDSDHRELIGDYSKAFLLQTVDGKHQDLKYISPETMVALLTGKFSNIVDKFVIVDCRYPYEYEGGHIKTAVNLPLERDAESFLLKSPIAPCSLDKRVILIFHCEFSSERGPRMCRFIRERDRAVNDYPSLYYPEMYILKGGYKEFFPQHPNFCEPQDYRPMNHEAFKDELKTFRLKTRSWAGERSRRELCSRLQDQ

inhibition	SMILES
41%	COc1cccc(COc2c(I)cc3c(c2I)CN(C(=O)/C=C/c2cccc(F)c2)[C@H](C(=O)O)C3)c1
36%	N#C/C(=C\c1ccccc1)C(=O)N1Cc2c(cc(I)c(OCC(=O)OCc3ccccc3)c2I)C[C@H]1C(=O)O
11%	N#C/C(=C\c1ccccc1)C(=O)N1Cc2c(cc(I)c(OCCCCl)c2I)C[C@H]1C(=O)O
22%	O=C(O)[C@@H]1Cc2cc(I)c(OCc3cccc(C(F)(F)F)c3)c(I)c2CN1C(=O)/C=C/c1ccc(Cl)cc1
12%	N#C/C(=C\c1ccccc1)C(=O)N1Cc2c(cc(I)c(O)c2I)C[C@H]1C(=O)O
24%	C/C(=C\c1ccccc1)C(=O)N1Cc2c(cc(I)c(OCC(=O)OCc3ccccc3)c2I)C[C@H]1C(=O)O
34%	COc1cccc(COc2c(I)cc3c(c2I)CN(C(=O)/C=C/c2ccccc2F)[C@H](C(=O)O)C3)c1
